Measurements as given in patent US11040108B2, “Amino acid- and peptide-steroid conjugates and use thereof” (BRANDEIS UNIVERSITY, priority 2016, dated 2021).
Values after ≈ are worked out from the molar mass of the structure shown. Values joined by “and” are separate entries in the source; they are usually repeats but may differ in a detail not shown here. Equal values may be shown once. Read-outs that look alike come from different tables or passages of the source.

Legend:
[1] = tested on: HeLa cells; test: MTT assay, cytotoxicity against HeLa; format: cell-based, human
Procedure: (§1) HeLa, Saos-2, HS-5, HepG2, T98G, and A2780 cells were purchased from American-type Culture Collection (ATCC, USA). A2780cis cell was purchased from Sigma. HeLa cells, HepG-2 cells, and T98G cells were cultured in MEM Medium supplemented with 10% v/v fetal bovine serum, 100 U/mL penicillin, and 100 μg/mL streptomycin. Saos-2 cells were cultured in McCoy's 5a Medium (for Saos-2) supplemented with 15% v/v fetal bovine serum, 100 U/mL penicillin, and 100 μg/mL streptomycin. HS-5 cells were cultured in Dulbecco's Modified Eagle's medium (DMEM) supplemented with 10% v fetal bovine serum (FBS), 100 U/mL penicillin, and 100 μg/mL streptomycin. A2780cis cells were cultured in RPMI 1640 Medium supplemented with 10% v/v fetal bovine serum, 100 U/mL penicillin, and 100 μg/mL streptomycin (cisplatin only necessary every 2-3 passages). All cells were maintained at 37° C. in a humidified atmosphere of 5% CO2.
(§2) An MTT assay was used to test the cytotoxicity. All different cell lines were seeded in 96-well plates at 1×10^5 cells/well for 24 hours followed by removal of the culture medium and subsequent addition of culture medium containing different concentrations of the precursors. At designated time (24/48/72 hours), 10 μL MTT solution (5 mg/mL) was added to each well and incubated at 37° C. for another 4 hours, and then 100 μL of SDS-HCl solution was added to stop the reduction reaction and dissolve the purple formazan. The absorbance of each well at 595 nm was measured by a multimode microplate reader. The cytotoxicity assay was performed three times and the average value of the three measurements was taken.
To confirm that assemblies of the cholesterol conjugate are able to inhibit other cancer cell lines, 1a was incubated with HeLa cells, a widely studied malignant cervical cancer cell line.

[2] = tested on: HepG2 human liver carcinoma cells; test: MTT assay, cell viability of HepG2; format: cell-based; details: read-out: IC50 against HepG-2
Procedure: as §1
An MTT assay was used to test the cytotoxicity. All different cell lines were seeded in 96-well plates at 1×10^5 cells/well for 24 hours followed by removal of the culture medium and subsequent addition of culture medium containing different concentrations of the precursors. […] The absorbance of each well at 595 nm was measured by a multimode microplate reader. […]

[3] = tested on: A2780cis cells; test: MTT assay, cytotoxicity against A2780cis; format: cell-based, human
Procedure: as §1, §2
The activity of conjugate 1a against a platinum-resistant, ovarian cancer cell line (A2780cis) (Behrens et al., “Characterization of a Cis-Diamminedichloroplatinum(Ii)-Resistant Human Ovarian Cancer Cell Line and its Use in Evaluation of Platinum Analogues,” Cancer Res. 47:414 (1987); Masuda et al., “Increased DNA Repair as a Mechanism of Acquired Resistance to Cis-Diamminedichloroplatinum (II) in Human Ovarian Cancer Cell Lines,” Cancer Res. 48:5713 (1988), which are hereby incorporated by reference in their entirety) was first examined. To assess the efficacy of conjugate 1a, the assay was carried out in parallel using the known, clinically used cytotoxic agent, cisplatin.

[4] = tested on: A2780cis cell lines; test: Combination of 1a with other anti-cancer agents; format: cell-based, human; details: mixture of 1a with TIC10, Apo2L/TRAIL or doxorubicin
Procedure: In addition, 1a causes down regulation of cell survival proteins, Akt (Alexander, “Inhibiting the Akt Pathway in Cancer Treatment,” Pharmacy & Therapeutics 36(4): 225-227 (2011), which is hereby incorporated by reference in its entirety) and Src (Irby et al., “Role of Src Expression and Activation in Human Cancer,” Oncogene 19(49):5636-5642 (2000), which is hereby incorporated by reference in its entirety). Treatment of A2780cis cell lines with 1a (12.5 μM) for 24 hours downregulates expression of Src (FIGS. 13A-B) and Akt (FIGS. 13C-D). […] When used in combination with other anti-cancer agents, TIC10, Apo2L/TRAIL, and doxorubicin, a mixture of 1a with the individual anti-cancer agents was prepared, and then the cells were incubated with the mixture.

## CC(C)CCC[C@@H](C)C1CC[C@H]2[C@@H]3CC=C4CC(OC(=O)NC(Cc5ccc(OP(=O)(O)O)cc5)C(=O)O)CC[C@]4(C)[C@H]3CC[C@]12C (stereo partly drawn) [1a, Cholesterol-(phospho)D-Tyr]
[1]; 1a 12.5 μM + ALP, L-Phe, levamisole, zVAD-fmk, PJ34 or Nec-1, 48 hours
  viability of HeLa cell treated by 1a with phosphatase or cell death signaling inhibitors: significantly increased the viability
[1]; 48 hours, read-out: IC50 against HeLa cell
  IC50: 19 µM
[1]; Homo sapiens, HeLa, 48 h, read-out: IC50 against HeLa cell
  IC50: 18.6 µM
[1]; Homo sapiens, HeLa, 72 h, read-out: IC50 against HeLa
  IC50: 16 µM
[1]; treated by 1a, 24 hours
  viability of HeLa cells: most HeLa cells were viable
[2]; 48 hours
  IC50: 45 µM
[2]; 72 hours
  IC50: 35 µM
[3]; 1a 12.5 μM + ALP 1 U/mL, 48 hour co-culture
  cell viability of A2780cis treated by 1a with exogenous ALP: partially rescued
[3]; 1a 12.5 μM + L-Phe or levamisole 1 mM, 48 hours
  cell viability of A2780cis treated by 1a with ALP inhibitors: higher cell viability
[3]; 1a 12.5 μM + zVAD-fmk 50 μM, PJ34 1 μM or Nec-1 45 μM, 48 hours
  cell viability of A2780cis treated by 1a with cell death signaling inhibitors: rescued the cells, but only partially
[3]; 72 hours
  IC50 against A2780cis: 6.3 µg/mL (≈ 9.35 µM)
[3]; Homo sapiens, A2780cis, 48 h, read-out: IC50 against A2780cis, 48 hours
  IC50: 11 µM and 7.7 µg/mL
[3]; incubated with 1a at 24 hours
  cells viable (cell viability test, A2780cis): more than 80%
[3]; read-out: IC50 against A2780cis, 72 hours
  IC50: 9 µM
[4]
  effect of combination treatments: synergistic effects
